According to patent US11370766B2, “Sulfonyl amidine as indoleamine-2,3-dioxygenase inhibitor, and preparation method therefor and use thereof” (SHANGHAI LONGWOOD BIOPHARMACEUTICALS CO., LTD., priority 2016, dated 2022):
Where two headings read alike, the source gives them in different places.

Columns and labels:
IDO1 = molecular target: T1, IDO1 (Homo sapiens, UniProt P14902); test: IDO1 enzyme activity test (NFK Green); format: biochemical; settings: 10 nM IDO1, 100 uM L-tryptophan, NFK green fluorescence; read-out: IDO IC50
T1 construct: purchased NTRC NTRC-hTDO-1K
Protocol: 1. IDO1 Enzyme Activity Test Method (NFK Green)
Content of research: the inhibitory effect of the compound on the activity of IDO1 enzyme was examined.
IDO assay kit (NTRC, Cat. No. NTRC-hTDO-1K), DMSO (Sigma, Cat. No. D2650), 384-well plate_compound dilution plate (Greiner, Cat. No. 781280), 384-well plate_test plate (Perkin Elmer, Cat. No. 6007299)
10 nM IDO1 was incubated with compound or DMSO at 23° C. for 30 minutes, and L-type tryptophan was added at a final concentration of 100 uM and reacted for 1.5 hours. NFK green was added and incubated at 37° C. for 4 hours, and fluorescence signal data (excitation band, 400/25; emission band, 510/20) was corrected with Envision. Data analysis and mapping was conducted by XLfit5 software.
The test compounds and the reference compound LW3018 were finally tested at concentrations ranging from […] to 0.51 nM, 3-fold gradient dilution, 10 concentrations, and two replicate wells.

IDO1 in Hela cells = molecular target: T2, IDO1 in Hela cells (Homo sapiens, UniProt P14902); test: IDO cytology test (LC-MS), kynurenine in IFN-gamma-stimulated Hela cells; format: cell-based; settings: interferon gamma 100 ng/mL, 20 h, kynurenine by LC/MS
T2 construct: endogenous in cells; host or cells: Hela cells, IFN-gamma stimulated
Description: 2. IDO Cytology Test Method (LC-MS)
Content of research: the inhibitory effect of the compound on the activity of IDO1 in Hela cells was examined.
RPMI 1640 (phenol red free) medium (Invitrogen Cat. No. 11835030), fetal bovine serum (Invitrogen Cat. No. 10099141), penicillin and streptomycin (Invitrogen Gibco Cat. No. 15140-122), recombinant human interference γ (R&D system, Cat. No. 285-IF-100). 5% (w/v) trichloroacetic acid (Alfa Aesar Cat. No. A11156), DMSO (Sigma, Cat. No. D2650), 96-well plate_compound dilution plate (Axygen, Cat. No. WIPP02280), 96-well plate_test plate (Greiner, Cat. No. 655090)
The test compounds and the reference compound LW3018 were finally tested at concentrations ranging from […] to 0.76 nM, 3-fold gradient dilution, 9 concentrations, and two replicate wells.
Hela cells were plated in 96-well cell culture plates at a number of 40,000 cells per well, and incubated with RPMI 1640 containing 10% fetal bovine serum for 5-6 hours. The diluted test compound and recombinant human interferon gammaa (final concentration at 100 ng/mL) were added to activate IDO1 expression. The cells were cultured in a 37° C. cell incubator which was enriched with 5% carbon dioxide for 20 hours, and the reaction was stopped with 5% trichloroacetic acid and incubated for 30 minutes at 50° C. After the cell culture solution was precipitated, the supernatant was sent to LC/MS to detect the content of kynurenine. Data analysis and mapping was conducted by XLfit5 software.

[1] = Pharmacokinetics of LW105-1-1 in mice; format: in vivo; settings: plasma, male C57BL/6 mice; for AUC(0-t): male, C57BL/6, mouse; for MRT last: read-out: MRT0-last; for bioavailability: after dose standardization, read-out: F% (absolute bioavailability); for Cmax: read-out: Cmax (head printed as image)
Protocol: 18 male C57BL/6 mice were intragastrically or intravenously administered with compound LW105-1-1 (Table 3).
The preparation containing 5% DMA and 20% HPbCD aqueous solution as a solvent was administered by intravenous injection, and a preparation containing a solution comprising 5% DMA, 20% HPbCD and 0.1% CREMOPHOR EL as a solution was intragastrically administered. The animal strain was male C57BL/6 mice. Prior to the animal experiment, all animals were fasted and fed 4 hours after dosing; all animals were given free access to water.
Intravenous administration group: before administration, 0.083, 0.25, 0.5, 1, 2, 4, 8 and 24 hours after.
Oral administration group: before administration, 0.25, 0.5, 1, 2, 4, 8 and 24 hours after
Whole blood samples (0.03 mL) were collected from the saphenous vein at the indicated time (or other suitable blood collection sites), and all blood samples were added to a plastic centrifuge tube pre-filled with K2-EDTA anticoagulant and labeled. After the blood sample was collected, centrifuged for 10 minutes under 2 to 8° C. at 3000 g, and the supernatant plasma was aspirated, and quickly placed in dry ice, and kept at −20° C. or lower for LC-MS/MS analysis.
The concentrations of all samples were analyzed using LC-MS/MS. Plasma mean concentrations were processed using a non-compartmental model of WinNonlin™ Version 6.3 (Pharsight, Mountain View, Calif.) pharmacokinetic software, and pharmacokinetic parameters were calculated by linear logarithmic trapezoidal method.

[2] = test system: mouse colorectal cancer CT26 transplanted tumor; test: In vivo efficacy test of mouse colorectal cancer CT26 transplanted tumor
Protocol: Example 5 In Vivo Efficacy Test of Mouse Colorectal Cancer CT26 Transplanted Tumor
Under sterile conditions, CT26 cells in the proliferative phase were harvested, cell concentration was adjusted after digestion, and inoculated into the right hind limb of the mouse. Each mouse was inoculated with 1×10^5 CT26 cells in an inoculation volume of 0.1 mL. Four days after the inoculation, the average tumor volume was close to 20-30 mm^3, and the mouse was administered in a randomized group. The day of administration was recorded as DO, and the negative control was given same amount of vehicle. Co-administration of LW 105-1-1 with Anti-CTLA4 antibody was also tested in this experiment. After the administration was started, the tumor long diameter and short diameter were measured 3 times per week.

T2 sequence (P14902 whole entry): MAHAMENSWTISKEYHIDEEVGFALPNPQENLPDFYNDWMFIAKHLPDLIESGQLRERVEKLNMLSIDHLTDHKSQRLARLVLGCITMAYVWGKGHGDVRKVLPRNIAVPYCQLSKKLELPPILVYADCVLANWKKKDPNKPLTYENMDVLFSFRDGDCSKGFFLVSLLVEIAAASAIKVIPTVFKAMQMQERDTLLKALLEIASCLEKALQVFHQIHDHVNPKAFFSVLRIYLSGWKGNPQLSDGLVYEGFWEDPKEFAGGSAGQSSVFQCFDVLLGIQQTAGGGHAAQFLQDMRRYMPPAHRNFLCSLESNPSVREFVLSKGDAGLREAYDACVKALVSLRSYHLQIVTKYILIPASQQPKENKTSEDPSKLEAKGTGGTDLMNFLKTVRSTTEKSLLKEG
T1 sequence (P14902 whole entry): as above

CS(=N)(=O)NCCNc1nonc1C(=NO)Nc1ccc(F)c(Br)c1 (racemic) [LW105-1-1]
IC50 (IDO1): 0.0223 µM
IC50 (IDO1 in Hela cells): 0.0115 µM
AUC(0-t) ([1]; iv, 3 mg/kg, intravenous 3 mg/kg): 1.43 µg·h/mL
AUC(0-t) ([1]; po, 30 mg/kg, oral gavage 30 mg/kg): 10.1 µg·h/mL
AUC(0-t) ([1]; po, 100 mg/kg, oral gavage 100 mg/kg): 39.4 µg·h/mL
half-life ([1]; mouse, 3 mg/kg, heading: T1/2, intravenous 3 mg/kg): 0.688 h
AUC(0-inf) ([1]; mouse, intravenous 3 mg/kg): 1.45 µg·h/mL
C0 ([1]; mouse, intravenous 3 mg/kg): 2.56 µg/mL
clearance ([1]; mouse, intravenous 3 mg/kg): 2.07 L/h/kg
MRT last ([1]; mouse, intravenous 3 mg/kg): 0.904 h
Vd ([1]; mouse, intravenous 3 mg/kg, read-out: steady-state volume (Vdss)): 1.87 L/kg
AUC(0-inf) ([1]; mouse, oral gavage 30 mg/kg): 10.1 µg·h/mL
Tmax ([1]; mouse, oral gavage 30 mg/kg): 0.5 h
bioavailability ([1]; mouse, oral gavage 30 mg/kg): 69.9%
Cmax ([1]; mouse, oral gavage 30 mg/kg): 4.81 µg/mL
MRT last ([1]; mouse, oral gavage 30 mg/kg): 3.11 h
half-life ([1]; mouse, oral gavage 30 mg/kg, read-out: T1/2 (converted)): 2.7 h
AUC(0-inf) ([1]; mouse, oral gavage 100 mg/kg): 39.3 µg·h/mL
Tmax ([1]; mouse, oral gavage 100 mg/kg): 0.25 h
bioavailability ([1]; mouse, oral gavage 100 mg/kg): 81.4%
Cmax ([1]; mouse, oral gavage 100 mg/kg): 20.7 µg/mL
MRT last ([1]; mouse, oral gavage 100 mg/kg): 1.99 h
half-life ([1]; mouse, oral gavage 100 mg/kg, read-out: T1/2 (converted)): 2.11 h
tumor inhibition rate ([2]; mouse CT26 model, 300 mg/kg oral twice a day): 40.6%
anti-tumor growth effect ([2]; mouse CT26 model, 30, 100, 300 mg/kg oral): dose-dependent anti-tumor growth effect

CCS(=N)(=O)NCCNc1nonc1C(=NO)Nc1ccc(F)c(Br)c1 (stereo not drawn) [LW105-1-2]
IC50 (IDO1): 0.0252 µM
IC50 (IDO1 in Hela cells): 0.0156 µM

CC(C)S(=N)(=O)NCCNc1nonc1C(=NO)Nc1ccc(F)c(Br)c1 (stereo not drawn) [LW105-1-3]
IC50 (IDO1): 0.0194 µM
IC50 (IDO1 in Hela cells): 0.0127 µM

N=S(=O)(NCCNc1nonc1C(=NO)Nc1ccc(F)c(Br)c1)C1CC1 (stereo not drawn) [LW105-1-4]
IC50 (IDO1): 0.0294 µM
IC50 (IDO1 in Hela cells): 0.0072 µM

CS(=N)(=O)NCCCNc1nonc1C(=NO)Nc1ccc(F)c(Br)c1 (stereo not drawn) [LW105-1-11]
IC50 (IDO1): 0.0265 µM
IC50 (IDO1 in Hela cells): 0.0111 µM
